# Data taken from US20090111177A1, “Maintenance of Embryonic Stem Cells by the GSK-3 Inhibitor 6-Bromoindirubin-3'-Oxime” (THE ROCKEFELLER UNIVERSITY, priority 2003, published 2009).
# Key:
# [1] = system: canonical Wnt pathway (TCF binding sites, TopFlash); assay: TopFlash/FopFlash luciferase reporter assay in CJ7 cells (MESCs); type: cell-based, mouse; conditions: FIG. 2b
# Protocol: (§1) Luciferase assay. […] Test compounds were added 24 hrs after transfection. Following incubation for 24 hrs, cells were harvested, and analyzed by the dual luciferase reporter assay system (Promega) using Lumat (Berthold Technologies). Each value was standardized by Renilla luciferase activity.
# (§2) The canonical Wnt signal occurs through binding of the Wnt protein to the Frizzled receptor at cell surface. It is followed by inactivation of GSK-3, leading to accumulation of β-catenin in the nucleus that activates the transcription of Wnt target genes in collaboration with TCFs^18,19. Alternatively, Wnt signaling can be activated by direct, intracellular inhibition of the GSK-3 function using specific inhibitors^20. […] First we examined whether mouse and human ESCs were capable of transducing Wnt signaling under the influence of 6-bromoindirubin-3′-oxime. […] We then evaluated expression of β-catenin at the cellular level as a read-out of the activation status of the canonical Wnt pathway in HESCs.
# Rex-1 promoter [2] = assay: Rex-1 YFP reporter line CJRex-Y (imaging / FACS); type: cell-based, mouse; conditions: CJRex-Y cells, 5 d
# Protocol: Generation of stable mouse ES lines. CJ7 ES cells were transfected with pRex-1-Venus, pTY or pCAG-HygEGFP by using Lipofectamine 2000 (Invitrogen) followed by G418 (Invitrogen) selection at 200 μg/ml (for CJRex-Y or CJ-TY) or hygromycine (Invitrogen) selection at 600 μg/ml (for CJ-GFP). Two weeks after the drug selection, a number of single colonies were picked up, expanded and used for the further analyses.
# FACS analysis of MESCs. We cultured CJRex-Y cells at a low density (500 cells/cm^2) on gelatin-coated 10 cm dishes in mouse ES cell medium alone, medium containing LIF, medium conditioned from wild type L cells or medium conditioned from Wnt3a-L cells (ATCC) for 5 days. The Wnt3a conditioned medium was prepared according to the provider's protocol. Cells were harvested, resuspended in mouse ES medium and subjected to FACS analysis using FACSVantage SE system (BD Biosciences).
# Rex-1 promoter [3] = assay: Rex-1 luciferase reporter assay in CJ7 cells; type: cell-based, mouse
# Description: Nat Biotechnol 20, 87-90), a small fragment containing the TCF binding sites and the cFos promoter in pTopFlash was excised by XbaI digestion, and cloned into pcDNA3-Venus in which Venus was introduced into the multiple cloning site between BamHI and EcoRI of the pcDNA3 vector (Invitrogen) whose CMV promoter was eliminated by BglII and HindIII digestion. […] To generate the Rex-1-Venus reporter construct, the Rex-1 promoter region was cloned into pcDNA3-Venus.
# as §1
# H1 cells = assay: Differentiation of HESCs into neurons on PA6 stromal cells; type: cell-based, human; conditions: comparable to conditioned medium-treated cells
# Description: Differentiation of ES cells into neurons. The PA6 stromal cell line (RIKEN) was used for the co-culture system (Kawasaki et al., 2002, Generation of dopaminergic neurons and pigmented epithelia from primate ES cells by stromal cell-derived inducing activity. Proc Natl Acad Sci USA 99, 1580-1585). H1 cell colonies grown on Matrigel under different conditions for 7 d were harvested and cultured (100˜200 cells/clump, approximately 5 clumps/well of a 12-well plate) on PA6 stromal cells in 90% Knockout-Dulecco's modified Eagle's medium, 10% KSR, 1 mM L-glutamine, 1% non-essential amino acids, 0.1 mM β-mercaptoethanol for 3 weeks as previously described (Sato et al., 2003, Molecular signature of human embryonic stem cells and its comparison with the mouse. Dev Biol 260, 404-413). At the end of the culture period, cells were stained with a neuron-specific antibody, Tuj-1, as shown below. The number of wells containing Tuj-1 positive neurons was determined in each condition in repeated experiments.
# [4] = system: canonical Wnt pathway (TCF binding sites, TopFlash); assay: TopFlash luciferase reporter assay in 293 cells; type: cell-based; conditions: 293 human kidney epithelial cells; micromolar concentrations; data not shown
# Protocol: as §1, §2
# MESCs = assay: Teratoma formation from treated MESCs in syngenic mice; type: in vivo, mouse; conditions: MESCs grown in 1 μM, subcutaneous injection into syngenic mice
# Protocol: Teratoma formation. We grew CJ-GFP cells at a low density (500 cells/cm^2) on gelatin-coated 10 cm dishes in medium containing 6-bromoindirubin-3′-oxime 1 μM for 7 d, then passaged cells at the same density and cultured under the same condition another 5 d to further enforce differentiation of cells. […] 6-bromoindirubin-3′-oxime-treated cells (approximately 5×10^6 cells/mouse) were subcutaneously injected into the left flank of syngenic 129 background mice. After three to five weeks, the developed teratoma (approximately 20 mm in diameter) was excised, fixed in 4% paraformaldehyde and subjected to hematoxylin and eosin staining for histological examinations.
# β-catenin = β-catenin immunofluorescence confocal analysis in HESCs; type: cell-based, human; conditions: compared to non-conditioned medium treated cells, FIG. 2c
# Protocol: Cell culture. Human embryonic stem cells (HESCs) lines were provided by WiCell Research Institute (H1 line)^5 and BresaGen Inc. (BGN1 and BGN2 lines). H1 cells were cultivated on irradiated mouse embryonic fibroblasts (MEFs) in medium consisting of 80% DMEM/F12 medium, 20% knockout serum replacement (KSR), 1 mM L-glutamine, 1% non-essential amino acids, 0.1 mM β-mercaptoethanol, and 4 ng/ml basic FGF (all from Invitrogen). […] Subsequently, HESCs were cultured on Matrigel (BD biosciences) in medium conditioned by MEFs, and passaged several times until colonies became free from contaminating MEFs as described before^9.
# Immunofluorescence. […] For the quantitative image analysis, fluorescent images from triplicate samples were taken by the Discovery1 system (Universal Imaging Corporation). The fluorescent objects were selected by the threshold function and evaluated in five regions of each well by quantification of pixel intensities and the object size by using MetaMorph software (Universal Imaging Corporation).
smiles,measurement,setting,value
O=C1Nc2cc(Br)ccc2/C1=C1/Nc2ccccc2/C1=N\O [6-bromoindirubin-3′-oxime],TopFlash reporter activity,[1]; CJ7 cells (MESCs),remarkable increase in TopFlash reporter activity in a dose-dependent manner
same,FopFlash reporter activity,"[1]; CJ7 cells, non-responsive mutated binding sites",no substantial change in FopFlash reporter activity
same,colony morphology / cell shape,Rex-1 promoter [2]; FIG. 3b,more compact than those observed in LIF-treated cells
same,Rex-1 transcriptional (YFP reporter) activity,Rex-1 promoter [2]; absence of LIF,strong transcriptional activity
same,Rex-1 promoter activity,"Rex-1 promoter [3]; CJ7 cells, compared to LIF-treated cells",substantial upregulation
same,Rex-1 transcriptional activation with dominant negative TCF-3 construct,Rex-1 promoter [3]; cells transfected with dominant negative TCF-3,largely abolished
same,neurogenesis on stromal feeders (Tuj-1),H1 cells,robust neurogenesis
same,TopFlash reporter activity,[4],robustly upregulated the reporter activity
same,"teratoma formation, germ layer derivatives",MESCs,generated teratomas consisting of all three germ layer-derived tissues
same,nuclear accumulation of β-catenin,β-catenin,nuclear accumulation of β-catenin
